Source: article PMC9046087, “Structural basis of tethered agonism of the adhesion GPCRs ADGRD1 and ADGRF1” (Nature, 2022)
Changes are numbered by the printed parent chain. Ends that are not written are not given here.

Legend:
Assay type in all cases: cell-based
ADGRF1 [1] = molecular target: T1, ADGRF1 (Homo sapiens, UniProt Q5T601, R788A); assay: BRET assay using TRUPATH biosensors, Gs activation of ADGRF1; details: Gs, ADGRF1 R788^6.37bA, n = 3
T1 construct: Flag (N); expressed in transfected cells; host or cells: HEK293F
T1 sequence (Q5T601 20-910 R788A): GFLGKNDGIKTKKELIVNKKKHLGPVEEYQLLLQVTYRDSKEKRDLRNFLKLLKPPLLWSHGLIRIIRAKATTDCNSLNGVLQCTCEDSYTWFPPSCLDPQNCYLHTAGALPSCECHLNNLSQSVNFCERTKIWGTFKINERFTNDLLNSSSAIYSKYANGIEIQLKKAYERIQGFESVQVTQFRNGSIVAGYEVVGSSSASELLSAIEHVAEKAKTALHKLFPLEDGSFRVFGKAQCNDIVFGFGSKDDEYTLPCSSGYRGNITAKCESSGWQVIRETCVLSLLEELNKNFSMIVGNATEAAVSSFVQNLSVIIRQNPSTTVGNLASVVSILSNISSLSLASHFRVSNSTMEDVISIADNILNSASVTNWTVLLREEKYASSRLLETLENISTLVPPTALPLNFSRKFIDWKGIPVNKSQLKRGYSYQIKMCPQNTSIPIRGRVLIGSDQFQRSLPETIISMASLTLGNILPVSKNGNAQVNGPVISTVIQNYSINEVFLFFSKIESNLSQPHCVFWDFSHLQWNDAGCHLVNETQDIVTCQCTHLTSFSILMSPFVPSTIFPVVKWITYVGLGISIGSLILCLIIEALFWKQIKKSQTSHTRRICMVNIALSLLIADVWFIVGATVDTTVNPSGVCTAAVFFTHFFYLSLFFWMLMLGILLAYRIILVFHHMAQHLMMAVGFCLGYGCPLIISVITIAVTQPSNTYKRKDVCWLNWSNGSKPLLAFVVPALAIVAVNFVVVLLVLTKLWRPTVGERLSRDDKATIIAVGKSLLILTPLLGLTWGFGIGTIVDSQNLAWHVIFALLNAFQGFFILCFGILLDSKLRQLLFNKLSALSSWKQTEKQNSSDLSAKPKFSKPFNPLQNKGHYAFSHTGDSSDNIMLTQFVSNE
Summary of the method: (§1)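 G protein activation by synthetic stalk peptides, read as GFP2-to-RLuc8 emission ratio from the fifth of five successive readings. Cells: HEK293F expressing receptor (WT or mutant) with GαsS-RLuc8 or Gαi1-RLuc8 plus Gβ3 and Gγ9-GFP2 (2:1:1:1). Pre-incubated 30 min at 37 °C; substrate coelenterazine 400a.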

ADGRF1 [2] = molecular target: T2, ADGRF1 (Homo sapiens, UniProt Q5T601, K791A); assay: as above; details: Gs, ADGRF1 K791^6.40bA, n = 3
T2 construct: Flag (N); expressed in transfected cells; host or cells: HEK293F
T2 sequence (Q5T601 20-910 K791A): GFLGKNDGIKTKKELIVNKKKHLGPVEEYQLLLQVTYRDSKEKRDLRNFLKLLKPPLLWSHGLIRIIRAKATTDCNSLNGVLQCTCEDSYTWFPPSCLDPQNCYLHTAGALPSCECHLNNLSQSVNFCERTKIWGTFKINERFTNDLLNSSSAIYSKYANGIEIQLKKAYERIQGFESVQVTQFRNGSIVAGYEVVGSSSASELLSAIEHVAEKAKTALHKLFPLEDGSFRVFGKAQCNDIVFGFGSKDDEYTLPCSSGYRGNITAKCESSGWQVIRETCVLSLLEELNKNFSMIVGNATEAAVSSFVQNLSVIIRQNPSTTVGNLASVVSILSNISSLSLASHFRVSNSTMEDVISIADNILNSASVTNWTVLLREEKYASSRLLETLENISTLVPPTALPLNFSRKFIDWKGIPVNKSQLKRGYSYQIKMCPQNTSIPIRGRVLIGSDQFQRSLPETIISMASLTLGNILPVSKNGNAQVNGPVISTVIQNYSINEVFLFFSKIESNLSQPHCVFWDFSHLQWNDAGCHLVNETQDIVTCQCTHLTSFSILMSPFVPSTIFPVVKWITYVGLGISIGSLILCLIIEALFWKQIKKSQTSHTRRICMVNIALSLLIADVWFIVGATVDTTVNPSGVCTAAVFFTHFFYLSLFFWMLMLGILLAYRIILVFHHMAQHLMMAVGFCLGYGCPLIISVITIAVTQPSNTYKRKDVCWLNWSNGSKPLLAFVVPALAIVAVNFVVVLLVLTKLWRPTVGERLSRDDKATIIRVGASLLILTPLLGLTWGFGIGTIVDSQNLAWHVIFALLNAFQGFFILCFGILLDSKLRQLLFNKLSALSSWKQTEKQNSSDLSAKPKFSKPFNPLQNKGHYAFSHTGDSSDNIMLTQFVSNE
Summary of the method: as §1

ADGRF1 [3] = molecular target: T3, ADGRF1 (Homo sapiens, UniProt Q5T601, L681H); assay: BRET assay using TRUPATH biosensors, Gi activation of ADGRF1; details: ADGRF1 L681^3.53bH
T3 construct: Flag (N); expressed in transfected cells; host or cells: HEK293F
T3 sequence (Q5T601 20-910 L681H): as the sequence (Q5T601 20-910 R788A) above, with L662H, A769R counted along it
Method: (§2) To study the synthetic stalk peptide-induced G protein activation of ADGRD1 and ADGRF1, a BRET assay using TRUPATH biosensors was conducted to measure the proximal interaction between RLuc8 fused to the Gα subunit and GFP2 fused to the Gγ subunit. The TRUPATH suite of biosensors was obtained from Addgene (Addgene kit no. 1000000163) as a gift from B. Roth, including GαsS-RLuc8, Gαi1-RLuc8, Gβ3 and Gγ9-GFP2 as previously described.
(§3) The wild-type or mutant ADGRD1 and ADGRF1 were transiently co-transfected with plasmids encoding Gα-RLuc8 (GαsS-RLuc8 for Gs activation assay; Gαi1-RLuc8 for Gi activation assay), Gβ3 and Gγ9-GFP2 at a ratio of 2:1:1:1 (receptor plasmid, 800 ng; G protein subunit plasmids, 400 ng for each) in 2 ml HEK293F cells at a density of 1.2 × 10^6 cells per ml. Cell cultivation and receptor surface expression measurement were performed as described above. The cells were plated into 96-well white plates (40,000 cells per well) in 60 μl of assay buffer and incubated at 37 °C for 30 min. Then 10 μl of freshly prepared 50 μM coelenterazine 400a (Nanolight Technologies) was added. […] The cells were stimulated with 30 μl of synthetic stalk peptide at different concentrations and the BRET signals were monitored continuously five times. The last measurements were used in data analysis. The BRET ratios were calculated as the ratio of the GFP2 emission to RLuc8 emission.

ADGRF1 [4] = molecular target: T4, ADGRF1 (Homo sapiens, UniProt Q5T601, V585A); assay: as above; details: ADGRF1 V585^1.36bA
T4 construct: Flag (N); expressed in transfected cells; host or cells: HEK293F
T4 sequence (Q5T601 20-910 V585A): as the sequence (Q5T601 20-910 R788A) above, with V566A, A769R counted along it
Method: as §2, §3

ADGRF1 [5] = molecular target: T5, ADGRF1 (Homo sapiens, UniProt Q5T601, R623A); assay: as above; details: ADGRF1 R623^2.46bA
T5 construct: Flag (N); expressed in transfected cells; host or cells: HEK293F
T5 sequence (Q5T601 20-910 R623A): T2 sequence (Q5T601 20-910 K791A) with R604A, A772K
Method: as §2, §3

ADGRF1 [6] = molecular target: T6, ADGRF1 (Homo sapiens, UniProt Q5T601, F823A); assay: as above; details: ADGRF1 F823^7.42bA
T6 construct: Flag (N); expressed in transfected cells; host or cells: HEK293F
T6 sequence (Q5T601 20-910 F823A): as the sequence (Q5T601 20-910 R788A) above, with A769R, F804A counted along it
Method: as §2, §3

[7] = read-out: pEC50 (mean ± s.e.m.) (converted)
[8] = n = 3, read-out: pEC50 (mean ± s.e.m.) (converted)

- Emax (mean ± s.e.m.) (ADGRF1 [1]): 112 ± 15 % of WT
- EC50 (ADGRF1 [1]; [7]): 933 nM
- Emax (mean ± s.e.m.) (ADGRF1 [2]): 79 ± 13 % of WT
- EC50 (ADGRF1 [2]; [7]): 912 nM
- Emax (mean ± s.e.m.) (ADGRF1 [3]; n = 4): 103 ± 13 % of WT
- EC50 (ADGRF1 [3]; n = 4, read-out: pEC50 (mean ± s.e.m.) (converted)): 347 nM
- Emax (mean ± s.e.m.) (ADGRF1 [4]; n = 3): 84 ± 8 % of WT
- EC50 (ADGRF1 [4]; [8]): 437 nM
- Emax (mean ± s.e.m.) (ADGRF1 [5]; n = 3): 120 ± 8 % of WT
- EC50 (ADGRF1 [5]; [8]): 447 nM
- Emax (mean ± s.e.m.) (ADGRF1 [6]; n = 3): 90 ± 14 % of WT
- EC50 (ADGRF1 [6]; [8]): 316 nM
Sequence: TSFSILMSPFVP [pF1]
